Test results reported in patent US8716347B2, “Tramadol for the treatment of functional gastrointestinal disorders” (Euro-Celtique S.A., priority 2000, dated 2014).
Where a name gives a salt, the structure may show the parent alone.

Experiments:
gut transit time = settings: in vivo; cited from earlier work
[1] = test system: functional gastrointestinal disorder (diarrhoea with abdominal pain); experiment: Treatment of patients with abdominal pain and diarrhoea with normal release tramadol (case reports); type: in vivo, human; settings: 50 mg normal release twice daily
[2] = test system: patients started on tramadol pain therapy; settings: initially when started on tramadol pain therapy; cited from earlier work
[3] = Example 2: person with abdominal pain and diarrhoea

**Q.** Which “effect on gut transit time” value (gut transit time) does the source give for `CN(C)CCCN1c2ccccc2CCc2ccccc21` [imipramine] here?
**A.** increase gut transit time

**Q.** Which “bowel movements after treatment” value ([1]; Example 1: person, long term chronic refractory diarrhoea) does the source give for `COc1cccc(C2(O)CCCCC2CN(C)C)c1` (stereo not shown) [tramadol hydrochloride] here?
**A.** normal bowel movements

**Q.** And the “abdominal pain after treatment” value ([1]; Example 1: person, severe persistent abdominal pain)?
**A.** absence of pain

**Q.** What does the source list for `COc1cccc(C2(O)CCCCC2CN(C)C)c1` (stereo not shown) [tramadol, 2-[(Dimethylamino)methyl]-1-(3-methoxyphenyl)cyclohexanol]?
**A.** abdominal pain after treatment [1, 3]: relief of pain; bowel movements after treatment [1, 3]: normal bowel movements; side effect ([1]; Example 2: person): some drowsiness; proportion of patients suffering nausea and vomiting [2]: one third and a half
